Measured values from PubChem BioAssay (NCI).
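Interpolation was linear, between the two tested concentrations surrounding the appropriate level; five concentrations were tested over 48 hours in 96-well plates. GI50 marks 50% less growth. TGI denotes the concentration required for complete inhibition of growth.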

What was measured:
Experiment in all cases: inhibition of tumour cell growth, NCI panel, 48 h
BT-549 breast = tested on: BT-549 breast
CCRF-CEM leukemia = tested on: CCRF-CEM leukemia
DU-145 prostate = tested on: DU-145 prostate
HCT-116 colon = tested on: HCT-116 colon
IGROV1 ovarian = tested on: IGROV1 ovarian
LOX IMVI melanoma = tested on: LOX IMVI melanoma
OVCAR-4 ovarian = tested on: OVCAR-4 ovarian
OVCAR-8 ovarian = tested on: OVCAR-8 ovarian
SK-MEL-2 melanoma = tested on: SK-MEL-2 melanoma
UACC-62 melanoma = tested on: UACC-62 melanoma

SMILES	TGI (BT-549 breast)	TGI (CCRF-CEM leukemia)	TGI (DU-145 prostate)	TGI (HCT-116 colon)	TGI (IGROV1 ovarian)	TGI (LOX IMVI melanoma)	TGI (OVCAR-4 ovarian)	TGI (OVCAR-8 ovarian)	TGI (SK-MEL-2 melanoma)	TGI (UACC-62 melanoma)	GI50 (CCRF-CEM leukemia)	GI50 (DU-145 prostate)	GI50 (IGROV1 ovarian)	GI50 (OVCAR-4 ovarian)	GI50 (OVCAR-8 ovarian)	GI50 (UACC-62 melanoma)
Cc1nc2ccc(Cl)cc2c(-n2ccnc2)c1CCn1ccnc1	69.7 µM	69.3 µM	> 100 µM	> 100 µM	> 100 µM	> 100 µM	> 100 µM	3.37 µM	44.7 µM	62.5 µM						
CN(/N=C1\C(=O)Nc2ccccc21)c1ccccc1		> 100 µM	> 100 µM	> 100 µM	> 100 µM	> 100 µM	> 100 µM	> 100 µM	> 100 µM	> 100 µM						
Cc1ccc2c(c1C)C(=O)C1(Cc3cc4c(cc3C1=O)CCC4)C2 (stereo not given)	> 100 µM	> 100 µM	> 100 µM	> 100 µM	> 100 µM		> 100 µM	> 100 µM	> 100 µM	> 100 µM						
COc1cc([C@@H]2c3cc4c(cc3[C@@H](NC(=O)c3ccc(C#N)cc3)C3COC(=O)[C@@H]32)OCO4)cc(OC)c1O (stereo not given in full)		> 100 µM		3.29 µM	5.13 µM	2.34 µM	> 100 µM	6.38 µM	5.56 µM	2.19 µM						
NS(=O)(=O)c1nnc(NC(=O)N(c2ccccc2)c2ccccc2)s1	42.2 µM	> 100 µM	41 µM	83.8 µM	52.6 µM	40.2 µM	> 100 µM	51.1 µM	89.1 µM	59.1 µM						
CN(C)c1nc(Oc2nc(N(C)C)nc(N(C)C)n2)nc(N(C)C)n1		> 100 µM		> 100 µM	> 100 µM	> 100 µM	> 100 µM	> 100 µM	> 100 µM	> 100 µM						
COC(=O)CCC(NC(=S)N/N=C/c1cccs1)C(=O)OC (stereo not given)				> 100 µM	> 100 µM	> 100 µM	> 100 µM	> 100 µM	> 100 µM	> 100 µM						
Cn1nc(-c2ccc(S(=O)(=O)/N=C(\NN)Nc3ccc(Cl)cc3)s2)cc1C(F)(F)F	33.3 µM		30.8 µM	29.2 µM	36 µM	34.2 µM	29.9 µM	43 µM	34.1 µM	31.1 µM						
Cc1cc([N+](=O)[O-])c(C)c2c1[nH]c1ccc(Cl)cc12		> 100 µM		> 100 µM		> 100 µM	> 100 µM	> 100 µM	> 100 µM							
O=c1cc(O)cc2n1CCC2		> 100 µM		> 100 µM	> 100 µM	> 100 µM		> 100 µM	> 100 µM	> 100 µM						
O=C(CC(NC(=O)C(F)(F)F)C(=O)O)OCc1ccccc1 (stereo not given)	> 100 µM	> 100 µM	> 100 µM	> 100 µM	> 100 µM	> 100 µM	> 100 µM	> 100 µM	> 100 µM	> 100 µM						
CC1CC(N2CCOCC2)=Nc2ccccc2N1C (stereo not given)	> 100 µM	> 100 µM	> 100 µM	> 100 µM	> 100 µM		> 100 µM	> 100 µM	> 100 µM	> 100 µM						
C[n+]1cc2cc(O)c(O)cc2c2ccc3cc(O)c(O)cc3c21	9.93 µM	6.17 µM	> 100 µM	4.21 µM	4.75 µM	18.3 µM	> 100 µM	11.4 µM	12 µM	5.34 µM						
N#Cc1c(-c2ccc([N+](=O)[O-])cc2)cc(-c2ccc(Nc3ccnc4cc(Cl)ccc34)cc2)[nH]c1=O	> 100 µM		> 100 µM	> 100 µM	> 100 µM	> 100 µM	> 100 µM	> 100 µM	> 100 µM	> 100 µM						
N#CNC(N)=NCc1ccccc1		> 100 µM		> 100 µM	> 100 µM	> 100 µM	> 100 µM	> 100 µM	> 100 µM							
COCOc1ccc(C(=O)Oc2cccc3c2OC(C)(C)O3)c(OCOC)c1		> 100 µM	> 100 µM	> 100 µM	> 100 µM	> 100 µM		> 100 µM		95.7 µM						
O=C(c1ccco1)N(C(=O)N1CCCCC1)c1ccccc1	> 100 µM	> 100 µM	> 100 µM	> 100 µM	> 100 µM	> 100 µM		> 100 µM	> 100 µM	> 100 µM						
Cc1ccc(-c2cc(-c3ccco3)c(C#N)c(=S)[nH]2)cc1	> 100 µM	> 100 µM	> 100 µM	> 100 µM	> 100 µM	> 100 µM	> 100 µM	> 100 µM		> 100 µM						
Cc1c2cccc-2c2cc(O)c3ccccc3c2n1-c1ccc(N(C)C)cc1	23.3 µM	32.8 µM		35.4 µM	14.5 µM	27.8 µM	12.1 µM	33.8 µM	31.4 µM	29.5 µM						
CCCCCCCC(=O)OCC(COC(=O)C(C)(C)C)OC(=O)Cc1ccccc1 (stereo not given)		> 100 µM		> 100 µM	> 100 µM	> 100 µM	> 100 µM	> 100 µM		> 100 µM						
COc1cc2ccc3c4cc(OC)c(OC)cc4c[n+](C)c3c2cc1O		> 100 µM		> 100 µM	> 100 µM	> 100 µM	> 100 µM	> 100 µM	> 100 µM	> 100 µM						
Clc1cccc(-c2sc(-c3cccs3)cc2Cc2cccs2)c1	> 10 µM	> 10 µM	> 10 µM	> 10 µM	> 10 µM	> 10 µM	> 10 µM	> 10 µM		> 10 µM						
CCOC(=O)C1C(c2ccc(Cl)cc2Cl)NC(c2ccc(C)cc2)C(C(=O)OC)S1(=O)=O (stereo not given)		> 100 µM			> 100 µM	> 100 µM	> 100 µM	> 100 µM	> 100 µM	> 100 µM						
c1ccc(-c2c(-c3ccccc3)[n+](Cc3ccc4ccccc4c3)c(-c3ccc(-c4nc5ccccc5s4)cc3)n2Cc2ccc3ccccc3c2)cc1		> 41.5 µM	1.03 µM		0.408 µM		1.12 µM	1.12 µM		1.25 µM	0.202 µM	0.262 µM	0.121 µM	0.0486 µM	0.151 µM	0.236 µM
